{
  "source": "patent US4276378A",
  "about": "“High sensitivity assays for angiotensin converting enzyme” (priority 1977, dated 1981)",
  "biological_target": "T1, Guinea pig urinary ACE (Cavia porcellus, UniProt H0UWL7)",
  "T1 sequence (H0UWL7 33-1302)": "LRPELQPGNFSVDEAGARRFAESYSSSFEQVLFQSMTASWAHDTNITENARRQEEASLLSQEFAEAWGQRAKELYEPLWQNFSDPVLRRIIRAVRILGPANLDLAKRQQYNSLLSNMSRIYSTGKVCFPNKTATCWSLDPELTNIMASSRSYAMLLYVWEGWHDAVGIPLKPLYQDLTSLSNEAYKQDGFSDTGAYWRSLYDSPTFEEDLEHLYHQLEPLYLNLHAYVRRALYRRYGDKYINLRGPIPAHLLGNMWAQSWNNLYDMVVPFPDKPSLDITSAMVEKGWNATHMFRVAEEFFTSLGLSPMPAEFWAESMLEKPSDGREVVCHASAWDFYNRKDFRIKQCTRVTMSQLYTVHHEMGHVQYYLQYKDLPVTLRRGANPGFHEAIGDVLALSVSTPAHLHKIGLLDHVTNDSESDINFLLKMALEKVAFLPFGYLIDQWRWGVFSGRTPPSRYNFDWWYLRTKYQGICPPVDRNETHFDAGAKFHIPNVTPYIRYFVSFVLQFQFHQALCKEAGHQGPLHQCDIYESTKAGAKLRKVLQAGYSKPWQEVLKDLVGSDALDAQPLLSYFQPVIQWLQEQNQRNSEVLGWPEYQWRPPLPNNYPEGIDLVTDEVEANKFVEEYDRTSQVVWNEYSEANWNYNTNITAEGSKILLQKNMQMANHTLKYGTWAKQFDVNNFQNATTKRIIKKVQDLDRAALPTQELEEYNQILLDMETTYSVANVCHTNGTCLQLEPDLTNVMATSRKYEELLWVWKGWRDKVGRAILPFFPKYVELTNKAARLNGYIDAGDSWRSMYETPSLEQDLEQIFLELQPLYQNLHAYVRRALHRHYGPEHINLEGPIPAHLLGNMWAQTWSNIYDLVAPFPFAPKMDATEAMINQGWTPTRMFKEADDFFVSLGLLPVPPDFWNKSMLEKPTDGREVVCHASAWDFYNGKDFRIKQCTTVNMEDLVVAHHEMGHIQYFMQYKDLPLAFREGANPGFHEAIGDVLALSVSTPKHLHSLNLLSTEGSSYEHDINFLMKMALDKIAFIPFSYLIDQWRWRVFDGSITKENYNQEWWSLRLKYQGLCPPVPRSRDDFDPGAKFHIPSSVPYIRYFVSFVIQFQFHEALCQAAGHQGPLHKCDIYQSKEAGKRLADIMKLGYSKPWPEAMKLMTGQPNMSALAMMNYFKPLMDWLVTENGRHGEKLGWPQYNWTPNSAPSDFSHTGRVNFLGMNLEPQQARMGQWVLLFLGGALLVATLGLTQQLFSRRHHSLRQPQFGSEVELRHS",
  "assay": "Sulfate and chloride effects on substrate hydrolysis (Example 3)",
  "type": "biochemical",
  "conditions": "37° C.",
  "note": "Peptide text beside a SMILES is read from it. * marks the point of attachment. Bz = O=C(c1ccccc1)*",
  "data": [
    {"compound": "C[C@H](NC(=O)[C@H](Cc1ccccc1)NC(=O)c1ccccc1)C(=O)N1CCC[C@H]1C(=O)O", "note": "[benzoylPheAlaPro, benzoyl-Phe-Ala-Pro] (Bz-Phe-Ala-Pro-OH)", "values": [
      {"measurement": "Reaction Velocity-Percent of Substrate Hydrolyzed in 10 minutes", "setting": "benzPheAlaPro, 0.05 Hepes, pH 8.0, 0.15M HCl, Na2 SO4 concentration 0", "value": 4.4, "unit": "%"},
      {"measurement": "Reaction Velocity-Percent of Substrate Hydrolyzed in 10 minutes", "setting": "benzPheAlaPro, 0.05 Hepes, pH 8.0, 0.15M HCl, Na2 SO4 concentration 0.1", "value": 5.0, "unit": "%"},
      {"measurement": "Reaction Velocity-Percent of Substrate Hydrolyzed in 10 minutes", "setting": "benzPheAlaPro, 0.05 Hepes, pH 8.0, 0.15M HCl, Na2 SO4 concentration 0.2", "value": 4.45, "unit": "%"},
      {"measurement": "Reaction Velocity-Percent of Substrate Hydrolyzed in 10 minutes", "setting": "benzPheAlaPro, 0.05 Hepes, pH 8.0, 0.15M HCl, Na2 SO4 concentration 0.3", "value": 4.85, "unit": "%"},
      {"measurement": "Reaction Velocity-Percent of Substrate Hydrolyzed in 10 minutes", "setting": "benzPheAlaPro, 0.05 Hepes, pH 8.0, 0.15M HCl, Na2 SO4 concentration 0.5", "value": 5.6, "unit": "%"}
    ]},
    {"compound": "CC(C)C[C@H](NC(=O)[C@H](Cc1c[nH]cn1)NC(=O)CNC(=O)c1ccccc1)C(=O)O", "note": "[HipHisLeu] (Bz-Gly-His-Leu-OH)", "values": [
      {"measurement": "Reaction Velocity-Percent of Substrate Hydrolyzed in 10 minutes", "setting": "HipHisLeu, 0.05M Hepes, pH 8.0, 0.0M NaCl, Na2 SO4 concentration 0", "value": 0, "unit": "%"},
      {"measurement": "Reaction Velocity-Percent of Substrate Hydrolyzed in 10 minutes", "setting": "HipHisLeu, 0.05M Hepes, pH 8.0, 0.0M NaCl, Na2 SO4 concentration 0.1", "value": 0, "unit": "%"},
      {"measurement": "Reaction Velocity-Percent of Substrate Hydrolyzed in 10 minutes", "setting": "HipHisLeu, 0.05M Hepes, pH 8.0, 0.0M NaCl, Na2 SO4 concentration 0.2", "value": 0, "unit": "%"},
      {"measurement": "Reaction Velocity-Percent of Substrate Hydrolyzed in 10 minutes", "setting": "HipHisLeu, 0.05M Hepes, pH 8.0, 0.0M NaCl, Na2 SO4 concentration 0.3", "value": 0, "unit": "%"},
      {"measurement": "Reaction Velocity-Percent of Substrate Hydrolyzed in 10 minutes", "setting": "HipHisLeu, 0.05M Hepes, pH 8.0, 0.0M NaCl, Na2 SO4 concentration 0.4", "value": 0.1, "unit": "%"},
      {"measurement": "Reaction Velocity-Percent of Substrate Hydrolyzed in 10 minutes", "setting": "HipHisLeu, 0.05M Hepes, pH 8.0, 0.0M NaCl, Na2 SO4 concentration 0.5", "value": 0.1, "unit": "%"},
      {"measurement": "Reaction Velocity-Percent of Substrate Hydrolyzed in 10 minutes", "setting": "HipHisLeu, 0.05M Hepes, pH 8.0, 0.0M NaCl, Na2 SO4 concentration 0.6", "value": 0.25, "unit": "%"},
      {"measurement": "Reaction Velocity-Percent of Substrate Hydrolyzed in 10 minutes", "setting": "HipHisLeu, 0.05M Hepes, pH 8.0, 0.0M NaCl, Na2 SO4 concentration 0.7", "value": 0.25, "unit": "%"},
      {"measurement": "Reaction Velocity-Percent of Substrate Hydrolyzed in 10 minutes", "setting": "HipHisLeu, 0.05M Hepes, pH 8.0, 0.0M NaCl, Na2 SO4 concentration 0.75", "value": 0.25, "unit": "%"},
      {"measurement": "Reaction Velocity-Percent of Substrate Hydrolyzed in 10 minutes", "setting": "HipHisLeu, 0.05M Hepes, pH 8.0, 0.0M NaCl, Na2 SO4 concentration 0.8", "value": 0.25, "unit": "%"},
      {"measurement": "Reaction Velocity-Percent of Substrate Hydrolyzed in 10 minutes", "setting": "HipHisLeu, 0.05M Hepes, pH 8.0, 0.0M NaCl, Na2 SO4 concentration 0.9", "value": 0.7, "unit": "%"},
      {"measurement": "Reaction Velocity-Percent of Substrate Hydrolyzed in 10 minutes", "setting": "HipHisLeu, 0.05M Hepes, pH 8.0, 0.0M NaCl, Na2 SO4 concentration 1.2", "value": 3.9, "unit": "%"},
      {"measurement": "Reaction Velocity-Percent of Substrate Hydrolyzed in 10 minutes", "setting": "HipHisLeu, 0.05M Hepes, pH 8.0, 0.1M NaCl, Na2 SO4 concentration 0", "value": 0.3, "unit": "%"},
      {"measurement": "Reaction Velocity-Percent of Substrate Hydrolyzed in 10 minutes", "setting": "HipHisLeu, 0.05M Hepes, pH 8.0, 0.1M NaCl, Na2 SO4 concentration 0.4", "value": 4.1, "unit": "%"},
      {"measurement": "Reaction Velocity-Percent of Substrate Hydrolyzed in 10 minutes", "setting": "HipHisLeu, 0.05M Hepes, pH 8.0, 0.1M NaCl, Na2 SO4 concentration 0.6", "value": 8.3, "unit": "%"},
      {"measurement": "Reaction Velocity-Percent of Substrate Hydrolyzed in 10 minutes", "setting": "HipHisLeu, 0.05M Hepes, pH 8.0, 0.1M NaCl, Na2 SO4 concentration 0.75", "value": 12.05, "unit": "%"},
      {"measurement": "Reaction Velocity-Percent of Substrate Hydrolyzed in 10 minutes", "setting": "HipHisLeu, 0.05M Hepes, pH 8.0, 0.1M NaCl, Na2 SO4 concentration 0.9", "value": 12.25, "unit": "%"}
    ]}
  ]
}
